Values after ≈ are worked out from the molar mass of the structure shown. Where two headings read alike, the source gives them in different places.
How the values were obtained:
Assay type in all cases: cell-based
[1] = test system: Penicillium chrysogenum (Pc); assay: Minimum inhibitory concentration (MIC) in malt yeast agar, Penicillium chrysogenum
Protocol: (§1) The antimicrobial activity of the compounds of the present invention is set forth as the minimum inhibitory concentration (MIC) for the active compounds and is determined for nine (9) bacteria, using nutrient agar, and seven (7) yeast and fungi, using malt yeast agar. This determination is conducted using a one percent solution of the test compound prepared in a mixture of acetone and water.
(§2) Malt yeast agar is prepared at pH 5.5 by adding 3 g yeast extract and 45 g malt agar per liter of deionized water. The specific agar is dispensed in 30 mL aliquots into 25×200 mm test tubes, capped and autoclaved for 15 minutes at 115° C.
(§3) The test tubes containing the agar are cooled in a water bath until the temperature of the agar is 48° C. Then, an appropriate amount of the one percent solution of the test compound is added (except in the controls where no compound is added) to the respective test tubes so that the final concentrations are 500, […], 100, 50, 25, 10, 5, 2.5, 1.0 and zero parts per million of the test compound in the agar, thus having a known concentration of test compound dispersed therein. The contents of the test tubes are then transferred to respective petri plates. After drying for 24 hours, the petri plates containing nutrient agar are inoculated with bacteria and those containing malt yeast agar are inoculated with yeast and fungi.
(§4) The inoculation with the yeast and fungi is accomplished as follows. Cultures of yeast and fungi are incubated for seven days on malt yeast agar at 30° C. These cultures are used to prepare suspensions by the following procedure. A suspension of each organism is prepared by adding 10 mL of sterile saline and 10 microliters of octylphenoxy polyethoxy ethanol to the agar slant of yeast or fungi. The sterile saline/octylphenoxy potyethoxy ethanol solution is then agitated with a sterile swab to suspend the microorganism grown on the slant. Each resulting suspension is diluted into sterile saline (1 part suspension: 9 parts sterile saline). Aliquots of these dilutions are placed in individual wells of Steer's Replicator and petri plates inoculated as previously described. The petri plates are incubated at 30° C. and read after 48 hours for yeast and 72 hours for fungi.

[2] = test system: Salmonella choleraesuis (Se); assay: Minimum inhibitory concentration (MIC) in nutrient agar, Salmonella choleraesuis; details: Salmonella enterica, 48 h
Protocol: as §1
(§5) Nutrient agar is prepared at pH 6.8, representing a neutral medium, and at pH 8.2, representing an alkaline medium. The nutrient agars are prepared by adding 23 g of nutrient agar to one-liter of deionized water. In addition, the alkaline medium is prepared by adjusting a 0.04M solution of N-[tris-(hydroxymethyl)methyl]glycine buffered deionized water with concentrated sodium hydroxide to a pH of 8.5.
as §3
(§6) The inoculation with bacteria is accomplished by using the following procedure. Twenty-four hour-cultures of each of the bacteria are prepared by incubating the respective bacteria in tubes containing nutrient broth for 24 hours at 30° C. in a shaker. Dilutions of each of the 24 hour-cultures are made so that nine separate suspensions (one for each of the nine test bacteria) are made, each containing 10^8 colony forming units (CFU) per mL of suspension of a particular bacteria. Aliquots of 0.3 mL of each of the bacterial suspensions are used to fill the individual wells of Steer's Replicator. For each microbial suspension, 0.3 mL was used to fill three wells (i.e., three wells of 0.3 mL each) so that for the nine different bacteria, 27 wells are filled. The Steer's Replicator is then used to inoculate both the neutral and alkaline pH nutrient agar petri plates.
(§7) The inoculated petri plates are incubated at 30° C. for 48 hours and then read to determine if the test compound which is incorporated into the agar prevented growth of the respective bacteria.

[3] = test system: Escherichia coli (Ec); assay: Minimum inhibitory concentration (MIC) in nutrient agar, Escherichia coli
Protocol: as §1, §5, §3, §6, §7

[4] = test system: Pseudomonas aeruginosa (Pa); assay: Minimum inhibitory concentration (MIC) in nutrient agar, Pseudomonas aeruginosa; details: 30° C., 48 hours, read-out: Minimum Inhibitory Concentration, Pa
Protocol: as §1, §5, §3, §6, §7

[5] = test system: Trichoderma viride (Tv); assay: Minimum inhibitory concentration (MIC) in malt yeast agar, Trichoderma viride
Protocol: as §1, §2, §3, §4

[6] = test system: Aureobasidium pullulan (Ap); assay: Minimum inhibitory concentration (MIC) in malt yeast agar, Aureobasidium pullulan
Protocol: as §1, §2, §3, §4

[7] = test system: Staphylococcus aureus (Sa); assay: Minimum inhibitory concentration (MIC) in nutrient agar, Staphylococcus aureus
Protocol: as §1, §5, §3, §6, §7

[8] = test system: Proteus vulgaris (Pv); assay: Minimum inhibitory concentration (MIC) in nutrient agar, Proteus vulgaris; details: 48 h
Protocol: as §1, §5, §3, §6, §7

[9] = test system: Bacillus subtilis (Bs); assay: Minimum inhibitory concentration (MIC) in nutrient agar, Bacillus subtilis
Protocol: as §1, §5, §3, §6, §7

[10] = test system: Pseudomonas aeruginosa (PRD-10); assay: Minimum inhibitory concentration (MIC) in nutrient agar, Pseudomonas aeruginosa PRD-10; details: 48 h
Protocol: as §1, §5, §3, §6, §7

[11] = test system: Fusarium oxysporum (Fo); assay: Minimum inhibitory concentration (MIC) in malt yeast agar, Fusarium oxysporum
Protocol: as §1, §2, §3, §4

[12] = test system: Aspergillus niger (An); assay: Minimum inhibitory concentration (MIC) in malt yeast agar, Aspergillus niger
Protocol: as §1, §2, §3, §4

[13] = test system: Saccharomyces cerevisiae (Sc); assay: Minimum inhibitory concentration (MIC) in malt yeast agar, Saccharomyces cerevisiae; details: pH 5.5, malt yeast agar, 30° C., 48 hours for yeast, read-out: Minimum Inhibitory Concentration, SC
Protocol: as §1, §2, §3, §4

[14] = test system: Klebsiella pneumoniae (Kp); assay: Minimum inhibitory concentration (MIC) in nutrient agar, Klebsiella pneumoniae
Protocol: as §1, §5, §3, §6, §7

[15] = test system: Enterobacter aerogenes (Ea); assay: Minimum inhibitory concentration (MIC) in nutrient agar, Enterobacter aerogenes; details: Klebsiella aerogenes, 48 h
Protocol: as §1, §5, §3, §6, §7

[16] = test system: Candida albicans (Ca); assay: Minimum inhibitory concentration (MIC) in malt yeast agar, Candida albicans
Protocol: as §1, §2, §3, §4

[17] = pH 5.5, malt yeast agar, 30° C., 72 hours for fungi, read-out: Minimum Inhibitory Concentration, PC
[18] = pH 6.8, read-out: Minimum Inhibitory Concentration, SC
[19] = pH 8.2, read-out: Minimum Inhibitory Concentration, SC
[20] = 48 h, pH 6.8, read-out: Minimum Inhibitory Concentration, Ec
[21] = 48 h, pH 8.2, read-out: Minimum Inhibitory Concentration, Ec
[22] = 72 h, pH 5.5, read-out: Minimum Inhibitory Concentration, Tv
[23] = pH 5.5, read-out: Minimum Inhibitory Concentration, Ap
[24] = pH 6.8, nutrient agar, 30° C., 48 hours, read-out: Minimum Inhibitory Concentration, Sa
[25] = pH 6.8, read-out: Minimum Inhibitory Concentration, Pv
[26] = pH 8.2, read-out: Minimum Inhibitory Concentration, Pv
[27] = 48 h, pH 8.2, read-out: Minimum Inhibitory Concentration, Bs
[28] = pH 6.8, nutrient agar, 30° C., 48 hours, read-out: Minimum Inhibitory Concentration, Bs
[29] = pH 6.8, read-out: Minimum Inhibitory Concentration, PRD
[30] = pH 8.2, read-out: Minimum Inhibitory Concentration, PRD
[31] = 72 h, pH 5.5, read-out: Minimum Inhibitory Concentration, Fo
[32] = pH 5.5, malt yeast agar, 30° C., 72 hours for fungi, read-out: Minimum Inhibitory Concentration, An
[33] = 48 h, pH 8.2, read-out: Minimum Inhibitory Concentration, Kp
[34] = pH 6.8, nutrient agar, 30° C., 48 hours, read-out: Minimum Inhibitory Concentration, Kp
[35] = pH 6.8, read-out: Minimum Inhibitory Concentration, Ea
[36] = pH 8.2, read-out: Minimum Inhibitory Concentration, Ea
[37] = pH 8.2, nutrient agar, 30° C., 48 hours, read-out: Minimum Inhibitory Concentration, Sa
[38] = 48 h, pH 5.5, read-out: Minimum Inhibitory Concentration, Ca

Row | Structure (SMILES) | MIC [1, 17] | MIC [2, 18] | MIC [2, 19] | MIC [3, 20] | MIC [3, 21] | MIC ([4]; pH 6.8, nutrient agar) | MIC ([4]; pH 8.2, nutrient agar) | MIC [5, 22] | MIC [6, 23] | MIC [7, 24] | MIC [8, 25] | MIC [8, 26] | MIC [9, 28] | MIC [10, 29] | MIC [10, 30] | MIC [13] | MIC [14, 33] | MIC [14, 34] | MIC [15, 35] | MIC [15, 36] | other results
1 | CS(=O)(=O)c1ccc(-c2nsnc2SC#N)cc1 [Example XI, 4-(4-Methylsulfonylphenyl)-3-thiocyanato-l,2,5-thiadiazole] | 500 µg/mL (≈ 1680 µM) | 500 µg/mL (≈ 1680 µM) | 500 µg/mL (≈ 1680 µM) | 500 µg/mL (≈ 1680 µM) | 500 µg/mL (≈ 1680 µM) | 500 µg/mL (≈ 1680 µM) | 500 µg/mL (≈ 1680 µM) | 250 µg/mL (≈ 841 µM) | 50 µg/mL (≈ 168 µM) | 100 µg/mL (≈ 336 µM) | 500 µg/mL (≈ 1680 µM) | 500 µg/mL (≈ 1680 µM) | 25 µg/mL (≈ 84.1 µM) | 500 µg/mL (≈ 1680 µM) | 500 µg/mL (≈ 1680 µM) | 250 µg/mL (≈ 841 µM) | 500 µg/mL (≈ 1680 µM) | 250 µg/mL (≈ 841 µM) | 500 µg/mL (≈ 1680 µM) | 500 µg/mL (≈ 1680 µM) | MIC ([7]; 48 h, pH 8.2, read-out: Minimum Inhibitory Concentration, Sa): 500 µg/mL (≈ 1680 µM); MIC [9, 27]: 500 µg/mL (≈ 1680 µM); MIC [11, 31]: 100 µg/mL (≈ 336 µM); MIC [12, 32]: 500 µg/mL (≈ 1680 µM); MIC ([16]; pH 5.5, malt yeast agar, 30° C., 48 hours for yeast, read-out: Minimum Inhibitory Concentration, Ca): 500 µg/mL (≈ 1680 µM)
2 | N#CSCSc1nsnc1-c1cccnc1 [Example XXXI, 4-(3-Pyridyl)-3-thiocyanatomethylthio-1,2,5-thiadiazole] | 9 µg/mL (≈ 33.8 µM) | 500 µg/mL (≈ 1880 µM) | > 500 µg/mL | 500 µg/mL (≈ 1880 µM) |  | 500 µg/mL (≈ 1880 µM) | > 500 µg/mL | 50 µg/mL (≈ 188 µM) |  | 100 µg/mL (≈ 375 µM) | 500 µg/mL (≈ 1880 µM) | > 500 µg/mL | 50 µg/mL (≈ 188 µM) | 500 µg/mL (≈ 1880 µM) | > 500 µg/mL | 9 µg/mL (≈ 33.8 µM) | > 500 µg/mL | 500 µg/mL (≈ 1880 µM) | 500 µg/mL (≈ 1880 µM) | > 500 µg/mL | MIC ([3]; pH 8.2, nutrient agar, 30° C., 48 hours, read-out: Minimum Inhibitory Concentration, Ec): 250 µg/mL (≈ 939 µM); MIC ([6]; pH 5.5, malt yeast agar, 30° C., read-out: Minimum Inhibitory Concentration, Ap): 9 µg/mL (≈ 33.8 µM); MIC [7, 37]: 50 µg/mL (≈ 188 µM); MIC [9, 27]: 25 µg/mL (≈ 93.9 µM); MIC [11, 31]: 25 µg/mL (≈ 93.9 µM); MIC ([12]; 72 h, pH 5.5, read-out: Minimum Inhibitory Concentration, An): 25 µg/mL (≈ 93.9 µM); MIC [16, 38]: 25 µg/mL (≈ 93.9 µM)
3 | N#CSCSc1nsnc1-c1cccc(Cl)c1 [Example XIX, 4-(3-Chlorophenyl)-3-thiocyanatomethylthio-1,2,5-thiadiazole] |  | 500 µg/mL (≈ 1670 µM) | > 500 µg/mL | 500 µg/mL (≈ 1670 µM) | 500 µg/mL (≈ 1670 µM) | 500 µg/mL (≈ 1670 µM) | > 500 µg/mL |  | 2.5 µg/mL (≈ 8.34 µM) | 9 µg/mL (≈ 30 µM) | 500 µg/mL (≈ 1670 µM) | > 500 µg/mL | 9 µg/mL (≈ 30 µM) | 500 µg/mL (≈ 1670 µM) | > 500 µg/mL | 1 µg/mL (≈ 3.34 µM) | > 500 µg/mL | 500 µg/mL (≈ 1670 µM) | 500 µg/mL (≈ 1670 µM) | > 500 µg/mL | MIC ([1]; 72 h, pH 5.5, read-out: Minimum Inhibitory Concentration, PC): 2.5 µg/mL (≈ 8.34 µM); MIC ([5]; pH 5.5, malt yeast agar, 30° C., 72 hours for fungi, read-out: Minimum Inhibitory Concentration, Tv): > 500 µg/mL; MIC [7, 37]: 9 µg/mL (≈ 30 µM); MIC ([9]; pH 8.2, nutrient agar, 30° C., 48 hours, read-out: Minimum Inhibitory Concentration, Bs): 9 µg/mL (≈ 30 µM); MIC ([11]; pH 5.5, malt yeast agar, 30° C., 72 hours for fungi, read-out: Minimum Inhibitory Concentration, Fo): 500 µg/mL (≈ 1670 µM); MIC [12, 32]: 5 µg/mL (≈ 16.7 µM); MIC [16, 38]: 25 µg/mL (≈ 83.4 µM)

Source: patent publication US5488060A, “Substituted thiadiazoles, compositions containing them and their use as antimicrobial and marine antifouling agents” (The Dow Chemical Company, priority 1994, dated 1996)
